Measurements from patent US20250215012A1, “IKZF2 DEGRADERS AND USES THEREOF” (REGENTS OF THE UNIVERSITY OF MICHIGAN, priority 2022, published 2025).
pIC50: −log10 of the molar value.

Key:
[1] = molecular target: GST-tagged wild-type human CRBN protein (Homo sapiens (Human), UniProt Q96SW2); assay: Cereblon Binding Assay (Cisbio Cereblon Binding Kit, TR-FRET); conditions: about 3 hours at room temperature
Method: (§1) The binding to cereblon (CRBN) is determined using the Cereblon Binding Kit (Cisbio, #64BDCRBNPEG) following the manufacturer's instruction. Briefly, serially diluted compounds are incubated with GST-tagged wild-type human CRBN protein, XL665-labelled Thalidomide and Europium Cryptate labelled GST antibody.
as §1, with “(CRBN) was” for “(CRBN) is”, “compounds were” for “compounds are”, “GST antibody at room temperature for about 3 hours.” for “GST antibody.”

IKZF2 [2] = molecular target: T1, IKZF2 (Homo sapiens (Human), UniProt Q96SW2+Q9UKS7); assay: IKZF2 HiBiT Assay (Jurkat-IKZF2-HiBiT cell line); format: cell-based; conditions: for DC50: read-out: HiBit assay degradation analysis DC50; for Dmax: read-out: HiBit assay degradation analysis Dmax
Procedure, shortened: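 Jurkat cells carrying HiBiT-tagged IKZF2 were exposed to serially diluted compound for 24 h at 37 °C. Remaining IKZF2 was measured by Nano-Glo HiBiT lytic luminescence after 10-20 min at room temperature. Signal was normalized to DMSO, and IC50 came from a four-parameter variable-slope fit.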

[3] = molecular target: His tagged CRBN+DDB−DLS7+CXU4 (Homo sapiens (Human), UniProt Q96SW2); assay: IC50 Measurements for Binding to CRBN/DDBI (HTRF); conditions: Cy5-labeled Thalidomide probe, one hour incubation
IKZF2 [4] = molecular target: T1, IKZF2; assay: IKZF2 HiBit Assay (HEK293T Flp-in-HiBiT cells); format: cell-based; conditions: HEK293T Flp-in-HiBiT cells, 6 hrs; for DC50: read-out: IKZF2 HiBit degradation DC50; for Dmax: HEK-293T, read-out: IKZF2 HiBit degradation Dmax
Procedure, shortened: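 HEK293T Flp-in cells carrying CRISPR-inserted N-terminal HiBiT tag at the endogenous IKZF2 locus were treated with an 11-point, 3-fold dilution from 1 mM (stock) for 6 hrs; final DMSO 0.1%. HiBiT luminescence was detected after lysis with LgBiT/substrate reagent. DMSO-normalized curves gave 50% degradation concentration and Dmax.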

IKZF1 = IKZF1 (Homo sapiens (Human), UniProt Q13422+Q96SW2); assay: IKZF1 HiBit Assay (HEK293T Flp-in-HiBiT-IKZF1 stable cell line); format: cell-based; conditions: HEK293T Flp-in-HiBiT-IKZF1 cells, 6 hrs; for DC50: read-out: IKZF1 HiBit degradation DC50; for Dmax: HEK-293T, read-out: IKZF1 HiBit degradation Dmax
Procedure, shortened: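 HEK293T Flp-in cells with CRISPR-inserted N-terminal HiBiT tag treated 6 h with 11-point threefold dilutions (0.1% DMSO). Nano-Glo HiBiT lytic luminescence normalised to DMSO gave the 50%-degradation concentration; Dmax taken as the luminescence range from highest to lowest concentration.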

[5] = Jurkat-IKZF2-HiBiT cells, 24 hours

Sequence of His tagged CRBN+DDB−DLS7+CXU4 (Q96SW2 whole entry): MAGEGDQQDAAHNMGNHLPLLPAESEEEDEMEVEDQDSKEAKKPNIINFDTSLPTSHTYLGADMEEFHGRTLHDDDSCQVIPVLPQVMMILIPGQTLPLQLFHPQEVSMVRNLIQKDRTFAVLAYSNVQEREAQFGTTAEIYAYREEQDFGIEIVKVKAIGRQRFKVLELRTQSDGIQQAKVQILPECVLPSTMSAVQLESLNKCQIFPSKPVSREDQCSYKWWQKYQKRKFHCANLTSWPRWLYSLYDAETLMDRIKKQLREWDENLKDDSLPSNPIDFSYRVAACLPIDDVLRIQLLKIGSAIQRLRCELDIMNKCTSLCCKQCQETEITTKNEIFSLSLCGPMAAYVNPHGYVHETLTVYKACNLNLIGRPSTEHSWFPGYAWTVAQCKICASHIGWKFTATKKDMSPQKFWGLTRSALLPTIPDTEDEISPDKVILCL
Sequence of His tagged CRBN+DDB−DLS7+CXU4 (Q16531 whole entry partner): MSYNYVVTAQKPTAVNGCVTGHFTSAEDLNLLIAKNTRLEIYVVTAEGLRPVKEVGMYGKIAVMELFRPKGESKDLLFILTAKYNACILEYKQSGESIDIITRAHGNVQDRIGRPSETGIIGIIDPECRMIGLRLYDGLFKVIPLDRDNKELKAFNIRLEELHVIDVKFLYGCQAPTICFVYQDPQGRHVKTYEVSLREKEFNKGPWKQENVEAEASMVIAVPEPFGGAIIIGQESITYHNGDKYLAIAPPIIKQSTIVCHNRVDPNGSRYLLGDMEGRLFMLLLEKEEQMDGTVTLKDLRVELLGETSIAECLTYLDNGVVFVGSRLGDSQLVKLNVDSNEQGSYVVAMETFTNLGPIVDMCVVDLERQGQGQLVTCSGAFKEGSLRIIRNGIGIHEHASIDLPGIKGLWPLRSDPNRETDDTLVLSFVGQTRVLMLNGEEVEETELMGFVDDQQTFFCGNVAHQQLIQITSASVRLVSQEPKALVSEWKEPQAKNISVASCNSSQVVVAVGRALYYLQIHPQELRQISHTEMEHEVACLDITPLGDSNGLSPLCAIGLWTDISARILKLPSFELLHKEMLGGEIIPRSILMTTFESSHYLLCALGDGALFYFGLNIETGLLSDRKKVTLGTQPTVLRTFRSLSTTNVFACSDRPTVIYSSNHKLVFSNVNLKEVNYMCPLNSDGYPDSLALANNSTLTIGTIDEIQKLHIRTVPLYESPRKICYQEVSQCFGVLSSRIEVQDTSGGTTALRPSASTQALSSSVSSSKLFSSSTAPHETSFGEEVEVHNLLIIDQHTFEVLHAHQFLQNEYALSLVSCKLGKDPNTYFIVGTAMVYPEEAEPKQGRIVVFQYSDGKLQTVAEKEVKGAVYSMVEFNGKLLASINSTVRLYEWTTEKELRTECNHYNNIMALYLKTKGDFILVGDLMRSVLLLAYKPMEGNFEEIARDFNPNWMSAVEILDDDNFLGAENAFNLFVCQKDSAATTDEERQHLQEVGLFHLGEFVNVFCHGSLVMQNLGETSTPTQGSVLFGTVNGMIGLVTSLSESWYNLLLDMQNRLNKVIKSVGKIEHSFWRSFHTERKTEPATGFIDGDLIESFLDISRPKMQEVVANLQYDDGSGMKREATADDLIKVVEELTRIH
Sequence of GST-tagged wild-type human CRBN protein (Q96SW2 whole entry): as the sequence (Q96SW2 whole entry) above
Sequence of IKZF1 (Q13422 whole entry): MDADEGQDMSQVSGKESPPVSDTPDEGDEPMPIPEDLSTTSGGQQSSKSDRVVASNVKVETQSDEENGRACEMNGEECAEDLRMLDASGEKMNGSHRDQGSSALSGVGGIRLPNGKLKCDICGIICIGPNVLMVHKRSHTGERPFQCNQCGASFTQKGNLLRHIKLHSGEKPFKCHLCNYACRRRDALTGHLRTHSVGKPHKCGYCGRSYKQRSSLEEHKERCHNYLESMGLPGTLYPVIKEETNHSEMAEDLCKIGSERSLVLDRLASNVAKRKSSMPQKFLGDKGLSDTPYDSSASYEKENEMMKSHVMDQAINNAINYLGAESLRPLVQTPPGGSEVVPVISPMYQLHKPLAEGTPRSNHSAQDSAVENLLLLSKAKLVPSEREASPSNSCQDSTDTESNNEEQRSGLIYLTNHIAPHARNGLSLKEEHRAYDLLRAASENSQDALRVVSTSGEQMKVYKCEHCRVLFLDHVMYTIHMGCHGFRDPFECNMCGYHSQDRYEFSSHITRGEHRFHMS
Sequence of IKZF1 (Q96SW2 whole entry): as the sequence (Q96SW2 whole entry) above
Sequence of IKZF1 (Q16531 whole entry partner): as the sequence (Q16531 whole entry partner) above
T1 sequence (Q9UKS7 whole entry): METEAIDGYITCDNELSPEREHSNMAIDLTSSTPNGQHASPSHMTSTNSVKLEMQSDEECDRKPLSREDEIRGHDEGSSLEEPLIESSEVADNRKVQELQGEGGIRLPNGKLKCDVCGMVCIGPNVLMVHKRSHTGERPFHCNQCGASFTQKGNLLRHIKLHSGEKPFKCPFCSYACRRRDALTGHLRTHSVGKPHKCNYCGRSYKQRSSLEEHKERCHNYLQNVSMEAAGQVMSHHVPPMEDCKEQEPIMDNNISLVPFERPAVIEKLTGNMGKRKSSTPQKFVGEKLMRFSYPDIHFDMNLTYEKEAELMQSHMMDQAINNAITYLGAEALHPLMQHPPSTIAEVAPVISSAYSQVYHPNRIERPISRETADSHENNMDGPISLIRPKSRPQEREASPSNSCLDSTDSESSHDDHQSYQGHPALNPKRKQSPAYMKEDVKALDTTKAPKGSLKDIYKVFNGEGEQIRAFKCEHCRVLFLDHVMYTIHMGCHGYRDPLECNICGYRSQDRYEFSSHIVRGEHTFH
T1 sequence (Q96SW2 whole entry): as the sequence (Q96SW2 whole entry) above
T1 sequence (Q16531 whole entry partner): as the sequence (Q16531 whole entry partner) above

| Compound | pIC50 [1] | DC50 (IKZF2 [2]; [5]) [µM] | Dmax (IKZF2 [2]; [5]) [%] | further results |
| --- | --- | --- | --- | --- |
| O=C1CCC(N2Cc3c(ccc4c3OCC43CCNCC3)C2=O)C(=O)N1 (stereo not shown) [Compound A1, 3-(6-oxo-6,8-dihydro-2H,7H-spiro[furo[2,3-e]isoindole-3,4′-piperidin]-7-yl)piperidine-2,6-dione] | < 6.00 | > 0.5 |  | Dmax (IKZF2 [2]): < 40% |
| O=C1CCC(N2Cc3c(ccc4c3OCC43CCN(Cc4ccc(C(F)F)cc4)CC3)C2=O)C(=O)N1 (stereo not shown) [Compound A3, 3-(1′-(4-(difluoromethyl)benzyl)-6-oxo-6,8-dihydro-2H,7H-spiro[furo[2,3-e]isoindole-3,4′-piperidin]-7-yl)piperidine-2,6-dione] | 7.00 to 8.00 | > 0.5 | 40 to 60 |  |
| O=C1CCC(N2Cc3c(ccc4c3OCC43CCN(Cc4ccc(F)c(F)c4)CC3)C2=O)C(=O)N1 (stereo not shown) [Compound A5, 3-(1′-(3,4-difluorobenzyl)-6-oxo-6,8-dihydro-2H,7H-spiro[furo[2,3-e]isoindole-3,4′-piperidin]-7-yl)piperidine-2,6-dione] | 6.00 to 7.00 | > 0.5 | < 40 |  |
| O=C1CCC(N2Cc3c(ccc4c3OCC43CCN(Cc4ccccc4)CC3)C2=O)C(=O)N1 (stereo not shown) [Compound A8, 3-(1′-benzyl-6-oxo-6,8-dihydro-2H,7H-spiro[furo[2,3-e]isoindole-3,4′-piperidin]-7-yl)piperidine-2,6-dione] | 6.00 to 7.00 | 0.2 to 0.5 | 40 to 60 |  |
| CCc1ccc(CN2CCC3(CCOc4c3ccc3c4CN(C4CCC(=O)NC4=O)C3=O)CC2)cc1 (stereo not shown) [Compound A11, 3-(1-(4-ethylbenzyl)-7′-oxo-2′,3′,7′,9′-tetrahydro-8′H-spiro[piperidine-4,4′-pyrano[2,3-e]isoindol]-8′-yl)piperidine-2,6-dione] | 7.00 to 8.00 | > 0.5 | 40 to 60 |  |
| Cc1ccc(CN2CCC3(CCOc4c3ccc3c4CN(C4CCC(=O)NC4=O)C3=O)CC2)cc1 (stereo not shown) [Compound A12, 3-(1-(4-methylbenzyl)-7′-oxo-2′,3′,7′,9′-tetrahydro-8′H-spiro[piperidine-4,4′-pyrano[2,3-e]isoindol]-8′-yl)piperidine-2,6-dione] | 7.00 to 8.00 | > 0.5 | < 40 |  |
| Cc1ccc(CN2CCC3(CC2)COc2c3ccc3c2CN(C2CCC(=O)NC2=O)C3=O)cc1 (stereo not shown) [Compound A15, 3-(1′-(4-methylbenzyl)-6-oxo-6,8-dihydro-2H,7H-spiro[furo[2,3-e]isoindole-3,4′-piperidin]-7-yl)piperidine-2,6-dione] | 6.00 to 7.00 | 0.2 to 0.5 | 40 to 60 |  |
| O=C1CCC(N2Cc3c(ccc4c3OCC43CCN(Cc4cccc5ccccc45)CC3)C2=O)C(=O)N1 (stereo not shown) [Compound A27, 3-(1′-(naphthalen-1-ylmethyl)-6-oxo-6,8-dihydro-2H,7H-spiro[furo[2,3-e]isoindole-3,4′-piperidin]-7-yl)piperidine-2,6-dione] | 6.00 to 7.00 | < 0.05 | > 80 |  |
| O=C1CCC(N2Cc3c(ccc4c3OCC43CCN(Cc4cccc(F)c4)CC3)C2=O)C(=O)N1 (stereo not shown) [Compound A29, 3-(1′-(3-fluorobenzyl)-6-oxo-6,8-dihydro-2H,7H-spiro[furo[2,3-e]isoindole-3,4′-piperidin]-7-yl)piperidine-2,6-dione] | < 6.00 | > 0.5 | 40 to 60 |  |
| Cc1cc(C)cc(CN2CCC3(CC2)COc2c3ccc3c2CN(C2CCC(=O)NC2=O)C3=O)c1 (stereo not shown) [Compound A31, 3-(1′-(3,5-dimethylbenzyl)-6-oxo-6,8-dihydro-2H,7H-spiro[furo[2,3-e]isoindole-3,4′-piperidin]-7-yl)piperidine-2,6-dione] | 6.00 to 7.00 | 0.2 to 0.5 | 60 to 80 |  |
| O=C1CCC(N2Cc3c(ccc4c3OCC43CCN(Cc4cccc5cn[nH]c45)CC3)C2=O)C(=O)N1 (stereo not shown) [Compound A52, 3-(1′-((1H-indazol-7-yl)methyl)-6-oxo-6,8-dihydro-2H,7H-spiro[furo[2,3-e]isoindole-3,4′-piperidin]-7-yl)piperidine-2,6-dione] | 7.00 to 8.00 | < 0.05 | 60 to 80 |  |
| O=C1CCC(N2Cc3c(ccc4c3OCC43CCN(Cc4ccc5cn[nH]c5c4)CC3)C2=O)C(=O)N1 (stereo not shown) [Compound A56, 3-(1′-((1H-indazol-6-yl)methyl)-6-oxo-6,8-dihydro-2H,7H-spiro[furo[2,3-e]isoindole-3,4′-piperidin]-7-yl)piperidine-2,6-dione] | 6.00 to 7.00 | < 0.05 | 60 to 80 |  |
| Cn1cc2ccc(CN3CCC4(CC3)COc3c4ccc4c3CN(C3CCC(=O)NC3=O)C4=O)cc2n1 (stereo not shown) [Compound A69, 3-(1′-((2-methyl-2H-indazol-6-yl)methyl)-6-oxo-6,8-dihydro-2H,7H-spiro[furo[2,3-e]isoindole-3,4′-piperidin]-7-yl)piperidine-2,6-dione] | 6.00 to 7.00 | < 0.05 | 60 to 80 |  |
| O=C1CCC(N2Cc3c(ccc4c3OCC43CCN(Cc4cccc5[nH]ccc45)CC3)C2=O)C(=O)N1 (stereo not shown) [Compound A87, 3-(1′-((1H-indol-4-yl)methyl)-6-oxo-6,8-dihydro-2H,7H-spiro[furo[2,3-e]isoindole-3,4′-piperidin]-7-yl)piperidine-2,6-dione] | 6.00 to 7.00 | < 0.05 | > 80 |  |
| O=C1CCC(N2Cc3c(ccc4c3OCC43CCN(Cc4cccc(CO)c4)CC3)C2=O)C(=O)N1 (stereo not shown) [Compound A98, 3-(1′-(3-(hydroxymethyl)benzyl)-6-oxo-6,8-dihydro-2H,7H-spiro[furo[2,3-e]isoindole-3,4′-piperidin]-7-yl)piperidine-2,6-dione] | 6.00 to 7.00 | 0.05 to 0.2 | 60 to 80 |  |
| Cn1cc(-c2cccc(CN3CCC4(CC3)COc3c4ccc4c3CN(C3CCC(=O)NC3=O)C4=O)c2)cn1 (stereo not shown) [Compound A105, 3-(1′-(3-(1-methyl-1H-pyrazol-4-yl)benzyl)-6-oxo-6,8-dihydro-2H,7H-spiro[furo[2,3-e]isoindole-3,4′-piperidin]-7-yl)piperidine-2,6-dione] | 6.00 to 7.00 | < 0.05 | 60 to 80 |  |
| [2H]C([2H])([2H])n1cc(-c2cccc(CN3CCC4(COc5c4ccc4c5CN([C@H]5CCC(=O)NC5=O)C4=O)C(F)(F)C3)c2)cn1 (stereo partly drawn) [Compound B49, (3S)-3-(3′,3′-difluoro-1′-(3-(1-(methyl-d3)-1H-pyrazol-4-yl)benzyl)-6-oxo-6,8-dihydro-2H,7H-spiro[furo[2,3-e]isoindole-3,4′-piperidin]-7-yl) piperidine-2,6-dione] |  |  |  | pIC50 [3]: 6.30 to 7.00; DC50 (IKZF2 [4]): < 0.001 µM; Dmax (IKZF2 [4]): > 80%; DC50 (IKZF1): > 1 µM; Dmax (IKZF1): < 20% |
| [2H]C([2H])(c1cccc(-c2cnn(C)c2)c1)N1CCC2(COc3c2ccc2c3CN([C@H]3CCC(=O)NC3=O)C2=O)C(F)(F)C1 (stereo partly shown) [Compound B50] |  |  |  | pIC50 [3]: 6.30 to 7.00; DC50 (IKZF2 [4]): 0.001 to 0.01 µM; Dmax (IKZF2 [4]): 60 to 80%; DC50 (IKZF1): > 1 µM; Dmax (IKZF1): < 20% |
| Cn1cc(-c2cccc(CN3CC[C@@]4(COc5c4ccc4c5CN([C@H]5CCC(=O)NC5=O)C4=O)C(F)(F)C3)c2)cn1 [Compound B52, (S)-3-((R)-3′,3′-difluoro-1′-(3-(1-methyl-1H-pyrazol-4-yl)benzyl)-6-oxo-6,8-dihydro-2H,7H-spiro[furo[2,3-e]isoindole-3,4′-piperidin]-7-yl)piperidine-2,6-dione] |  |  |  | pIC50 [3]: 6.30 to 7.00; DC50 (IKZF2 [4]): 0.001 to 0.01 µM; Dmax (IKZF2 [4]): 40 to 60%; DC50 (IKZF1): > 1 µM; Dmax (IKZF1): < 20% |
| (3S)-3-(1′-((1H-indazol-6-yl)methyl)-3′,3′-difluoro-3-oxo-1,3,7,8-tetrahydro-2H-spiro[cyclopenta[e]isoindole-6,4′-piperidin]-2-yl)piperidine-2,6-dione [Compound B33] |  |  |  | pIC50 [3]: 6.30 to 7.00; IKZF2 HiBit degradation Dmax (IKZF2 [4]): B (B: 60-80%); DC50 (IKZF2 [4]): 0.001 to 0.01 µM; IKZF1 HiBit degradation Dmax (IKZF1): C (C: <20%); DC50 (IKZF1): > 1 µM |
| (3S)-3-(3′,3′-difluoro-1′-((1-methyl-1H-indazol-6-yl)methyl)-3-oxo-1,3,7,8-tetrahydro-2H-spiro[cyclopenta[e]isoindole-6,4′-piperidin]-2-yl)piperidine-2,6-dione [Compound B34] |  |  |  | pIC50 [3]: 6.30 to 7.00; IKZF2 HiBit degradation Dmax (IKZF2 [4]): B (B: 60-80%); DC50 (IKZF2 [4]): 0.001 to 0.01 µM; IKZF1 HiBit degradation Dmax (IKZF1): C (C: <20%); DC50 (IKZF1): > 1 µM |
